Earlier results on one molecule are cited in patent publication US20120151612A1, “NON-SURGICAL APPROACH TO PREVENT AND CORRECT CRANIOFACIAL MALFORMATIONS DURING DEVELOPMENT” (UNIVERSITY OF SOUTHERN CALIFORNIA, priority 2010, published 2012).

This data set relates to angiotensin-mediated Tgf-β signaling. The following applies: patients of Marfan syndrome; cited from earlier work.

As to `CCCCc1nc(Cl)c(CO)n1Cc1ccc(-c2ccccc2-c2nn[nH]n2)cc1` [losartan], the enlarged aorta entry was “prevents the enlarged aorta”.
